Measurements published in US20140113934A1, “HETEROCYCLIC COMPOUNDS FOR TREATING HELMINTH INFECTIONS” (E I DU PONT DE NEMOURS AND COMPANY, priority 2011, published 2014).

What follows are compounds tested on Haemonchus contortus (assay: Test A: control of barber pole worm, eggs in culture media, mortality after 120 hours (L3 stage)). Settings: not given.
Format: cell-based
Experimental: For evaluating control of the barber pole worm (Haemonchus contortus), a test compound was solubilized in culture media (Earle's Balanced Salt Solution) containing Haemonchus contortus eggs to obtain a final test compound concentration of 2.0 ppm. The test unit was evaluated for mortality 120 hours later after which the eggs had hatched and had advanced to the L3 stage.

Row | Compound | mortality at 2 ppm [%]
1 | O=S(=O)(NCc1ccnc2ccccc12)c1ccc(COc2ccccc2)cc1Cl [Compound 37] | 100
2 | O=S(=O)(NCc1ccnc2ccccc12)c1cccc(Cc2ccccc2)c1 [Compound 64] | 100
3 | N#Cc1ccccc1Oc1ccc(S(=O)(=O)NCc2ccnc3ccccc23)cn1 [Compound 41] | 100
4 | O=S(=O)(NCc1ccnc2ccccc12)c1ccc(C#Cc2ccc(Cl)cc2Cl)s1 [Compound 73] | 100
5 | O=S(=O)(NCc1ccnc2ccccc12)c1cccc(COc2ccccc2)c1 [Compound 46] | 100
6 | N#Cc1c(Cl)cccc1Oc1ccc(S(=O)(=O)NCc2ccnc3ccccc23)cc1 [Compound 2, 4-(3-chloro-2-cyanophenoxy)-N-(4-quinolinylmethyl)benzenesulfonamide] | 100
7 | O=S(=O)(NCc1ccnc2ccccc12)c1ccc(C#Cc2ccccc2Cl)s1 [Compound 75] | 100
8 | COC(=O)c1ccccc1Oc1ccc(S(=O)(=O)NCc2ccnc3ccccc23)cc1 [Compound 16, methyl 2-[4-[[(4-quinolinylmethyl)amino]sulfonyl]phenoxy]benzoate] | 100
9 | O=S(=O)(NCc1ccnc2ccccc12)c1cccc(Cc2ccc(F)cc2)c1 [Compound 92] | 100
10 | O=S(=O)(NCc1ccnc2ccccc12)c1ccc(Cc2ccccc2)cc1 [Compound 5, 4-(phenylmethyl)-N-(4-quinolinylmethyl)benzenesulfonamide] | 100
11 | O=S(=O)(NCc1ccnc2ccccc12)c1ccc(Cc2ccccc2)s1 [Compound 80] | 100
12 | O=S(=O)(NCc1ccnc2ccccc12)c1ccc(Cc2ccc(F)cc2F)s1 [Compound 99] | 100
13 | O=S(=O)(NCc1ccnc2ccccc12)c1cccc(OCc2ccccc2)c1 [Compound 40] | 100
14 | O=S(=O)(NCc1ccnc2ccccc12)c1ccc(S(=O)(=O)c2ccccc2)s1 [Compound 36] | 100
15 | O=S(=O)(NCc1ccnc2ccccc12)c1ccc(C#Cc2ccccc2)s1 [Compound 74] | 100
16 | O=S(=O)(NCc1ccnc2ccccc12)c1cccc(COc2ccc(Cl)cc2Cl)c1 [Compound 44] | 100

The compounds below were run on Haemonchus contortus (assay: Test B: Haemonchus contortus burdens in orally infected mice after gavage of test compound). Settings: mice infected orally with 600 L3 Haemonchus contortus larvae; gavage 10.0 mg/kg on day 0; burdens on day 5 relative to vehicle-dosed controls.
Format: in vivo
Experimental: For evaluating control of the barber pole worm (Haemonchus contortus), mice were each infected orally with 600 L3 Hlaemonchus contortus larvae on Day −3. On day 0, the infected mice were gavaged with a test compound (n=1) in a propylene glycol/glycerol formal solution at the rate of 10.0 mg/kg body weight. On day 5, the mice were euthanized and evaluated for Haemonchus contortus burdens relative to the vehicle-dosed controls. The range of means for the number of Haemonchus contortus in the various tests in which these compounds were studied was 55-184.

Row | Compound | % Efficacy [%]
17 | O=C(Nc1ccc(S(=O)(=O)NCc2ccnc3ccccc23)cc1)c1ccccc1Cl [Compound 56] | 78
18 | COC(=O)c1ccc(Oc2ccc(S(=O)(=O)NCc3ccnc4ccccc34)cc2)c(Cl)c1 [Compound 27] | 78
19 | O=S(=O)(NCc1ccnc2ccccc12)c1ccc(Cc2ccc(F)cc2)cc1 [Compound 59] | 86
20 | 4-(2-chloro-4-cyanophenoxy)-N-(quinolinylmethyl)benzenesulfonamide [Compound 15] | 79
21 | O=S(=O)(NCc1ccnc2ccccc12)c1ccc(COc2ccc(Cl)cc2)cc1 [Compound 34] | 71
22 | O=S(=O)(NCc1ccnc2ccccc12)c1ccc(Cc2ccccc2F)cc1 [Compound 91] | 93
23 | CNC(=O)c1ccc(Oc2ccc(S(=O)(=O)NCc3ccnc4ccccc34)cc2)cc1 [Compound 51] | 74
24 | O=S(=O)(NCc1ccnc2ccccc12)c1ccc(C#Cc2ccccc2)cc1 [Compound 28] | 62
25 | O=S(=O)(NCc1ccnc2ccccc12)c1ccc(CCc2ccccc2)cc1 [Compound 38] | 75
26 | O=S(=O)(NCc1ccnc2ccccc12)c1cccc(Cc2ccccc2)c1 [Compound 64] | 70
27 | N#Cc1cccc(Oc2ccc(S(=O)(=O)NCc3ccnc4ccccc34)cc2)c1 [Compound 23] | 54
28 | N#Cc1c(Cl)cccc1Oc1ccc(S(=O)(=O)NCc2ccnc3ccccc23)cc1 [Compound 2, 4-(3-chloro-2-cyanophenoxy)-N-(4-quinolinylmethyl)benzenesulfonamide] | 76
29 | O=S(=O)(NCc1ccnc2ccccc12)c1ccc(Cc2ccc(F)cc2F)cc1 [Compound 60] | 76
30 | O=S(=O)(NCc1ccnc2ccccc12)c1cccc(Cc2ccc(F)cc2)c1 [Compound 92] | 73
31 | O=S(=O)(NCc1ccnc2ccccc12)c1ccc(C(F)c2ccccc2)cc1 (racemic) [Compound 76] | 87
32 | COc1ccccc1C(=O)Nc1ccc(S(=O)(=O)NCc2ccnc3ccccc23)cc1 [Compound 69] | 90
33 | O=S(=O)(NCc1ccnc2ccccc12)c1ccc(Cc2ccccc2)cc1 [Compound 5, 4-(phenylmethyl)-N-(4-quinolinylmethyl)benzenesulfonamide] | 69
34 | O=S(=O)(NCc1ccnc2ccccc12)c1ccc(Cc2ccccc2)s1 [Compound 80] | 80
35 | O=S(=O)(NCc1ccnc2ccccc12)c1ccc(Nc2ccccc2)cc1 [Compound 70] | 89
36 | O=S(=O)(NCc1ccnc2ccccc12)c1ccc(OCc2ccc(Cl)cc2Cl)cc1 [Compound 7] | 61
37 | O=S(=O)(NCc1ccnc2ccccc12)c1ccc(C#Cc2ccccc2)s1 [Compound 74] | 60
38 | N#Cc1cc(Br)ccc1Oc1ccc(S(=O)(=O)NCc2ccnc3ccccc23)cc1 [Compound 31] | 66
39 | N#Cc1ccc(Oc2ccc(S(=O)(=O)NCc3ccnc4ccccc34)cc2)cc1 [Compound 9] | 72
40 | O=C(Nc1ccc(S(=O)(=O)NCc2ccnc3ccccc23)cc1)c1ccccc1 [Compound 53] | 61
